In patent publication US10167262B2, “Herbicidal substituted 3-arylpyrazoles” (FMC CORPORATION, priority 2014, dated 2019):

What was measured:
Type in all cases: in vivo
[1] = test system: fall panicum (Panicum dichotomiflorum); assay: Test E pre-/postemergence greenhouse test, plant response rating 0-100; settings: Preemergence, 500 g ai/ha, scale 0 to 100
In short: (§1)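 Preemergence application to planted silt loam and postemergence application to 2–18 cm seedlings are run simultaneously. Evaluation is visual against controls after 14 to 21 days, scored from 0 (no effect) to 100 (complete control).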

[2] = test system: field bindweed (Convolvulus arvensis); assay: as above; settings: scale 0 to 100; for Field Bindweed plant response rating: Preemergence
In short: as §1

[3] = test system: hairy beggarticks (Bidens pilosa); assay: as above; settings: scale 0 to 100; for Beggarticks plant response rating: Preemergence
In short: as §1

[4] = test system: palmer pigweed (Amaranthus palmeri); assay: as above; settings: scale 0 to 100; for Pigweed, Palmer plant response rating: Preemergence
In short: as §1

[5] = test system: waterhemp (common waterhemp, Amaranthus rudis); assay: as above; settings: scale 0 to 100; for Waterhemp plant response rating: Preemergence
In short: as §1

[6] = test system: wild poinsettia (Euphorbia heterophylla); assay: as above; settings: scale 0 to 100; for Poinsettia, Wild plant response rating: Preemergence
In short: as §1

[7] = test system: waterhemp_RES2, (ALS & HPPD resistant common waterhemp, Amaranthus rudis); assay: Test E postemergence greenhouse test, plant response rating 0-100; settings: scale 0 to 100
In short: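 Visual ratings, 0 (no effect) to 100 (complete control), made versus controls 14–21 days after postemergence application in the greenhouse. Plants were at 1- to 4-leaf stage (2–18 cm) in peat moss/vermiculite potting medium.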

O=C(c1ccccc1)c1cn(CO)nc1-c1cc(Cl)cc(Cl)c1 [Compound 15, [3-(3,5-dichlorophenyl)-1-(hydroxymethyl)-1H-pyrazol-4-yl]phenylmethanone]
70: Waterhemp plant response rating ([5]; 62 g ai/ha) | Plant response rating, Waterhemp_RES2 ([7]; 62 g ai/ha)
75: Waterhemp plant response rating ([5]; 250 g ai/ha) | Plant response rating, Waterhemp_RES2 ([7]; 125 g ai/ha)
65: Pigweed, Palmer plant response rating ([4]; 250 g ai/ha)
98: Plant response rating, Waterhemp_RES2 ([7]; 500 g ai/ha)
80: Beggarticks plant response rating ([3]; 500 g ai/ha)
60: Plant response rating, Waterhemp_RES2 ([7]; 31 g ai/ha)
100%: pest or weed control at 250 g/ha ([3]; Bidens pilosa, post-emergence, Postemergence, 250 g ai/ha) | pest or weed control at 500 g/ha ([4]; Amaranthus palmeri, post-emergence, Postemergence, 500 g ai/ha) | pest or weed control at 250 g/ha ([5]; Amaranthus tuberculatus, post-emergence, Postemergence, 250 g ai/ha) | pest or weed control at 500 g/ha ([5]; Amaranthus tuberculatus, post-emergence, Postemergence, 500 g ai/ha)
75%: pest or weed control at 62 g/ha ([4]; Amaranthus palmeri, post-emergence, Postemergence, 62 g ai/ha) | pest or weed control at 125 g/ha ([4]; Amaranthus palmeri, post-emergence, Postemergence, 125 g ai/ha)
35%: pest or weed control at 31 g/ha ([4]; Amaranthus palmeri, post-emergence, Postemergence, 31 g ai/ha)
100: Pigweed, Palmer plant response rating ([4]; 500 g ai/ha) | Waterhemp plant response rating ([5]; 500 g ai/ha)
80%: pest or weed control at 31 g/ha ([5]; Amaranthus tuberculatus, post-emergence, Postemergence, 31 g ai/ha)
25: Beggarticks plant response rating ([3]; 250 g ai/ha)
98%: pest or weed control at 62 g/ha ([3]; Bidens pilosa, post-emergence, Postemergence, 62 g ai/ha) | pest or weed control at 125 g/ha ([3]; Bidens pilosa, post-emergence, Postemergence, 125 g ai/ha) | pest or weed control at 500 g/ha ([3]; Bidens pilosa, post-emergence, Postemergence, 500 g ai/ha) | pest or weed control at 250 g/ha ([4]; Amaranthus palmeri, post-emergence, Postemergence, 250 g ai/ha) | pest or weed control at 62 g/ha ([5]; Amaranthus tuberculatus, post-emergence, Postemergence, 62 g ai/ha)
0%: pest or weed control at 31 g/ha ([2]; Convolvulus arvensis, post-emergence, Postemergence, 31 g ai/ha) | pest or weed control at 62 g/ha ([2]; Convolvulus arvensis, post-emergence, Postemergence, 62 g ai/ha) | pest or weed control at 125 g/ha ([2]; Convolvulus arvensis, post-emergence, Postemergence, 125 g ai/ha) | pest or weed control at 250 g/ha ([2]; Convolvulus arvensis, post-emergence, Postemergence, 250 g ai/ha) | pest or weed control at 500 g/ha ([2]; Convolvulus arvensis, post-emergence, Postemergence, 500 g ai/ha) | pest or weed control at 31 g/ha ([6]; Euphorbia heterophylla, post-emergence, Postemergence, 31 g ai/ha, read-out: Plant response rating, Poinsettia, Wild) | pest or weed control at 62 g/ha ([6]; Euphorbia heterophylla, post-emergence, Postemergence, 62 g ai/ha, read-out: Plant response rating, Poinsettia, Wild) | pest or weed control at 125 g/ha ([6]; Euphorbia heterophylla, post-emergence, Postemergence, 125 g ai/ha, read-out: Plant response rating, Poinsettia, Wild) | pest or weed control at 250 g/ha ([6]; Euphorbia heterophylla, post-emergence, Postemergence, 250 g ai/ha, read-out: Plant response rating, Poinsettia, Wild) | pest or weed control at 500 g/ha ([6]; Euphorbia heterophylla, post-emergence, Postemergence, 500 g ai/ha, read-out: Plant response rating, Poinsettia, Wild)
0: Panicum, Fall plant response rating [1] | Field Bindweed plant response rating ([2]; 31 g ai/ha) | Field Bindweed plant response rating ([2]; 62 g ai/ha) | Field Bindweed plant response rating ([2]; 125 g ai/ha) | Field Bindweed plant response rating ([2]; 250 g ai/ha) | Field Bindweed plant response rating ([2]; 500 g ai/ha) | Beggarticks plant response rating ([3]; 31 g ai/ha) | Beggarticks plant response rating ([3]; 62 g ai/ha) | Beggarticks plant response rating ([3]; 125 g ai/ha) | Pigweed, Palmer plant response rating ([4]; 31 g ai/ha) | Pigweed, Palmer plant response rating ([4]; 62 g ai/ha) | Pigweed, Palmer plant response rating ([4]; 125 g ai/ha) | Waterhemp plant response rating ([5]; 31 g ai/ha) | Poinsettia, Wild plant response rating ([6]; 125 g ai/ha) | Poinsettia, Wild plant response rating ([6]; 250 g ai/ha) | Poinsettia, Wild plant response rating ([6]; 500 g ai/ha)
90: Waterhemp plant response rating ([5]; 125 g ai/ha) | Plant response rating, Waterhemp_RES2 ([7]; 250 g ai/ha)
90%: pest or weed control at 31 g/ha ([3]; Bidens pilosa, post-emergence, Postemergence, 31 g ai/ha)
95%: pest or weed control at 125 g/ha ([5]; Amaranthus tuberculatus, post-emergence, Postemergence, 125 g ai/ha)
